Results taken from patent US10059721B2, “Substituted thieno[3,2-b]pyrazines for inhibiting cancer cell proliferation and inducing cancer cell apoptosis” (DONGGUK UNIVERSITY INDUSTRY-ACADEMIC COOPERATION FOUNDATION, priority 2014, dated 2018).

Key:
Assay type in all cases: cell-based
A549 = experiment: Cell growth inhibition experiment (SRB), A549; conditions: Homo sapiens, incubated for 96 hours, read-out: IC50 (μM) of cancer cell lines A549
Description: (§1) The 4-(aryl)-N-(2-alkoxythieno[3,2-b]pyrazin-3-yl)-piperazin-1-carboxamide derivative compounds synthesized according to Examples 1 to 27 of the present invention were treated with various human tissue-derived cancer cell lines cultured according to Experimental Example 1, and thus the inhibitory effect of the growth of human cancer cells was confirmed. The cell growth inhibition experiment was conducted using sulforhodamine B (SRB) technique (Skehan et al., J. National Cancer Institute, 1990, 82: 1107-1112). Specifically, each cell line was seeded in a 96-well plate at a density of 2 to 3×10^3 cells/well, cultured overnight, and then treated with the 4-(aryl)-N-(2-alkoxythieno[3,2-b]pyrazin-3-yl)-piperazin-1-carboxamide derivative compounds of the present invention. The experiment was repeated 3 times for each compound. Cells treated with each compound were additionally incubated for 96 hours, fixed with 10% trichloroacetic acid (TCA), and then left at 4° C. for 1 hour. The resultant was washed 3 times with distilled water. Thereafter, each cell was treated with 0.4% sulforhodamine B dissolved in 1% acetic acid, stained for 30 minutes, and then washed 4 times with 1% acetic acid. The resultant was dried in the air. After shaking the resultant in Tris solution (10 mM) for 5 minutes, the absorbance was measured at 530 nm using a Benchmark Plus Microplate reader (Bio-Rad Laboratories, Hercules, Calif.).
(§2) In order to convert the OD530 value to the number of viable cells per each well, the measured OD530 value was compared to the standard OD530-vs.-cell number curve of each cell line. The percent survival was calculated using the following formula: % survival=Nlive cells(test)/Nlive cells(control)×100
(§3) IC50 values were calculated by nonlinear regression analysis.

[1] = tested on: HN31 (head and neck cancer) cell line; experiment: Cell growth inhibition experiment (SRB), HN31; conditions: Homo sapiens, incubated for 96 hours, read-out: IC50 (μM) of cancer cell lines HN31
Description: (§4) The cell lines below were used in order to confirm the efficacy of the compounds synthesized in Examples 1 to 27. Human PANC-1 (pancreatic cancer) and MDA-MB-231 (breast cancer) cell lines were obtained from American Type Culture Collection (ATCC; Manassas, Va.); and HN31 (head and neck cancer) and UMRC2 (kidney cancer) cell lines were secured from the United States National Institutes of Health (Bethesda, Md.). The MDA-MB-231, UMRC2, HN31, and PANC-1 cell lines were cultured in Dulbecco modified Eagle medium (DMEM) containing FBS (10%), HEPES (10 mM), penicillin (100 U/mL), and streptomycin (100 μg/mL). All cell lines were cultured in an incubator (37° C., 5% CO2).
as §1, §2, §3

[2] = tested on: PANC-1 (pancreatic cancer) cell line; experiment: Cell growth inhibition experiment (SRB), PANC-1; conditions: Homo sapiens, incubated for 96 hours, read-out: IC50 (μM) of cancer cell lines PANC-1
Description: as §4, §1, §2, §3

[3] = tested on: UMRC2 (kidney cancer) cell line; experiment: Cell growth inhibition experiment (SRB), UMRC2; conditions: Homo sapiens, incubated for 96 hours, read-out: IC50 (μM) of cancer cell lines UMRC2
Description: as §4, §1, §2, §3

HEK293 = experiment: Cell growth inhibition experiment (SRB), HEK293; conditions: Homo sapiens, incubated for 96 hours, read-out: IC50 (μM) of cancer cell lines HEK293
Description: as §1, §2, §3

HT29 = experiment: Cell growth inhibition experiment (SRB), HT29; conditions: Homo sapiens, HT-29, incubated for 96 hours, read-out: IC50 (μM) of cancer cell lines HT29
Description: as §1, §2, §3

SK-OV-3 = experiment: Cell growth inhibition experiment (SRB), SK-OV-3; conditions: Homo sapiens, incubated for 96 hours, read-out: IC50 (μM) of cancer cell lines SK-OV-3
Description: as §1, §2, §3

HUVEC = experiment: Cell growth inhibition experiment (SRB), HUVEC; conditions: Homo sapiens, incubated for 96 hours, read-out: IC50 (μM) of cancer cell lines HUVEC
Description: as §1, §2, §3

[4] = tested on: MDA-MB-231 (breast cancer) cell line; experiment: Cell growth inhibition experiment (SRB), MDA-MB-231; conditions: Homo sapiens, incubated for 96 hours, read-out: IC50 (μM) of cancer cell lines MDA-MB-231
Description: as §4, §1, §2, §3

Measured: IC50

COc1nc2ccsc2nc1NC(=O)N1CCN(c2cc(F)cc(OC(F)(F)F)c2)CC1 [Example 26, 4-(3-fluoro-5-(trifluoromethoxy)phenyl)-N-(2-methoxythieno[3,2-b]pyrazin-3-yl)piperazin-1-carboxamide]
< 2.5 µM: all assays above

COc1nc2ccsc2nc1NC(=O)N1CCN(c2cc(F)cc(C(F)(F)F)c2)CC1 [Example 27, 4-(3-fluoro-5-(trifluoromethyl)phenyl)-N-(2-methoxythieno[3,2-b]pyrazin-3-yl)piperazin-1-carboxamide]
< 2.5 µM: all assays above
